Results: patent publication US9868728B2, “Quinazoline derivatives, compositions, and uses related thereto” (Emory University, priority 2010, dated 2018)

Target: T1, NOX2 (Homo sapiens, UniProt P04839)
T1 construct: isolated plasma membranes from human neutrophils as a source for Nox2-p22phox; from tissue; host or cells: Plasma membranes of human neutrophils (Nox2-p22phox); cytosolic factors recombinant from E. coli
T1 sequence (P04839 2-570 limits assumed): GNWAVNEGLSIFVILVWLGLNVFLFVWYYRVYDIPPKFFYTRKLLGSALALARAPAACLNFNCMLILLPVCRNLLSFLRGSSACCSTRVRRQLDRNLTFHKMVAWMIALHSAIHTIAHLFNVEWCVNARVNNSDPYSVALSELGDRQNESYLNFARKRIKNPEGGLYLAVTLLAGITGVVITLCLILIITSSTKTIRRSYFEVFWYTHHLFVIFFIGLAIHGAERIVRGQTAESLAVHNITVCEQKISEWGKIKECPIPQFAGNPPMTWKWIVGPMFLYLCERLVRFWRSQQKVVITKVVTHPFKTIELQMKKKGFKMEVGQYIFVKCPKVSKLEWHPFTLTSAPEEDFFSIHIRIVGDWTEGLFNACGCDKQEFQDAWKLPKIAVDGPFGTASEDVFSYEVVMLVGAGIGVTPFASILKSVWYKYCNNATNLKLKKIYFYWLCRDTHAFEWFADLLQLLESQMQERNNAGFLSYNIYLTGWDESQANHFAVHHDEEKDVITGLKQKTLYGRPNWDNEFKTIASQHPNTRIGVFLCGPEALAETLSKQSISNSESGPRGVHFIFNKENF
T1 sequence (P13498 2-195 partner limits assumed): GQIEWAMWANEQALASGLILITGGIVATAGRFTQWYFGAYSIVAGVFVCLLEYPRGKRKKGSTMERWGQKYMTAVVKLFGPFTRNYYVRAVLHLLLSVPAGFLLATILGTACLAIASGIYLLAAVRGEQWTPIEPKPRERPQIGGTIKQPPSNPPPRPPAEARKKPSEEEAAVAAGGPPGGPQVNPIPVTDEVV
Assay: Nox2 cell-free assay (LO12 luminescence)
Type: biochemical
Conditions: Nox2 cell-free system; for IC50: read-out: NOX2 IC50 (concentration giving half-maximal inhibition); for Emax: value in parentheses, read-out: % inhibition (maximum inhibition achieved at a very high concentration of the compound)
Description: The following compounds were tested according to the procedures provided in the experimental section. Assays were carried out using the Nox2 cell-free system. The IC50 value is the concentration giving half-maximal inhibition, while the “% inhibition” shown in parentheses is the maximum inhibition achieved at a very high concentration of the compound. 100% refers to complete inhibition within experimental error of the assay.
In certain assays a Cell-Free recombinant NOX-2 system (consisting of isolated plasma membranes from human neutrophils as a source for Nox2-p22phox, supplemented with recombinant p47phox, p67phox and Rac1Q61L (activated Rac), expressed in and isolated from of E. coli. LO12 luminescence was used as a readout to monitor enzymatic activity.
Plasma membranes were prepared from human neutrophils, which express large amounts of Nox2 and stored at −80 C until use. Membranes are mixed with recombinant, purified cytosolic regulatory proteins (p67Np47 chimera, and constitutively active Rac1 mutant Q61) and FAD, along with varying concentrations of compound, and LO12, which luminesces when it reacts with ROSvi. The reaction is started by addition of NADPH and SDS (an artificial stimulus for Nox2). See Curnutte et al., (1987) J. Biol. Chem. 262: 6450-6452.

SMILES | IC50 [µM] | Emax [%] | NOX2 IC50 (concentration giving half-maximal inhibition)
CCOc1cc2c(=O)n(N)c(=S)[nH]c2cc1OC [AS2-001] | 1 | – | –
Nn1c(=S)[nH]c2cc3c(cc2c1=O)OCCO3 [AS2-014a] | 0.6 | – | –
Nn1c(=S)[nH]c2cc3c(cc2c1=O)OCO3 [AS2-014b] | 0.6 | – | –
O=C(O)CCCn1c(SCC(=O)Nc2nc(-c3ccccc3)cs2)nc2ccccc2c1=O [AS140] | > 10 | – | –
CCCCn1c(SCC(=O)Nc2cc(-c3ccc(C)cc3)no2)nc2ccccc2c1=O [AS153a] | > 10 | – | –
CN(C)CCCn1c(SCC(=O)Nc2cc(-c3ccc(Cl)cc3)no2)nc2ccccc2c1=O [AS154b] | 8 | 100 | –
CN(C)CCCn1c(SCC(=O)Nc2nc(-c3ccc(Br)cc3)cs2)nc2ccccc2c1=O [AS158a] | 5 | 100 | –
CCN(CC)CCCn1c(SCC(=O)Nc2nc(-c3cccc(C(F)(F)F)c3)cs2)nc2ccccc2c1=O [AS165b] | > 10 | 80 | –
CCCN(CCC)CCCn1c(SCC(=O)Nc2nc(-c3cccc(Br)c3)cs2)nc2ccccc2c1=O [AS173b] | > 20 | 40 | –
CN(C)CCCn1c(SCC(=O)Nc2nc(-c3cccc(C#N)c3)cs2)nc2ccccc2c1=O [AS188] | – | – | Not active
CN(C)CCCCn1c(SCC(=O)Nc2nc(-c3cccc(Br)c3)cs2)nc2ccccc2c1=O [AS195] | 3 | 100 | –
Nn1c(=S)[nH]c2ccccc2c1=O [AS-247] | 1.8 | – | –
Nn1c(SCC(=O)Nc2nc(-c3ccc(Br)cc3)cs2)nc2ccccc2c1=O [AS-248] | 12.7 | – | –
CN(C)CCCn1c(SCC(=O)Nc2nc(-c3ccc(Br)cc3)cs2)nc2ccsc2c1=O [AS-256] | 15 | – | –
CN(C)CCCn1c(=S)[nH]c2c(c1=O)CCCC2 [AS-259] | 7.5 | – | –
CN(C)CCCn1c(SCC(=O)Nc2nc(-c3ccc(Br)cc3)cs2)nc2c(c1=O)CCCC2 [AS-260] | 17.5 | – | –
COc1cc2[nH]c(=S)n(N)c(=O)c2cc1OC [AS-261A, 3-Amino-6,7-dimethoxy-2-thioxo-2,3-dihydroquinazolin-4(1H)-one] | 0.2 | – | –

SMILES | IC50 [µM] | Emax [%] | NOX2 IC50 (concentration giving half-maximal inhibition)
COC(=O)c1ccc2c(=O)n(N)c(=S)[nH]c2c1 [AS-261B] | 0.5 | – | –
Nn1c(=S)[nH]c2cc(C(=O)O)ccc2c1=O [AS-262] | 6 | – | –
COC(=O)c1ccc2c(=O)n(N(C)C)c(=S)[nH]c2c1 [AS-266] | 6 | – | –
COc1cc2[nH]c(=S)n(N(C)C)c(=O)c2cc1OC [AS-268] | 2.5 | – | –
COc1cc2[nH]c(=S)n(CCCCN)c(=O)c2cc1OC [AS-269] | 1 | – | –
COc1cc2[nH]c(=S)n(CCCO)c(=O)c2cc1OC [AS-270] | 1 | – | –
COc1cc2[nH]c(=S)n(O)c(=O)c2cc1OC [AS-271] | 2 | – | –
CCOc1cc2[nH]c(=S)n(N)c(=O)c2cc1OC [AS-278] | 0.6 | – | –
Cc1ccc(-c2csc(NC(=O)CSc3nc4ccccc4c(=O)n3CCCN(C)C)n2)cc1 [Sample T5306350] | > 10 | 90 | –
CC(Sc1nc2ccccc2c(=O)n1CCCO)C(=O)Nc1nc(-c2ccccc2)cs1 (centres unmarked) [Sample T5826778] | > 10 | 90 | –
O=C(CSc1nc2ccccc2c(=O)n1CCCO)Nc1nc(-c2cc(F)ccc2F)cs1 [Sample T5837596] | > 10 | 20 | –
CN(C)CCCn1c(=S)[nH]c2ccccc2c1=O [TG6-17-2] | 6.5 | 60 | –
Cc1csc(NC(=O)CSc2nc3ccccc3c(=O)n2CCCN(C)C)n1 [TG6-18] | > 10 | – | –
CN(C)CCCn1c(SCC(=O)Nc2cc(-c3ccc(F)cc3)n[nH]2)nc2ccccc2c1=O [TG6-20] | 4.5 | 90 | –
CN(C)CCCn1c(SCC(=O)NCc2ccco2)nc2ccccc2c1=O [TG6-23] | > 10 | – | –
CCN(CC)CCn1c(=S)[nH]c2ccccc2c1=O [TG6-27-2] | 5.5 | 97 | –
